Measured values reported in the NIST ThermoML archive (doi:10.1021/je3009123).
Numbers after ± are expanded uncertainties.

Experiments:
[1] = refractive index (Na D-line) (dimensionless); mn = molality of the nth substance listed, in mol/kg; details: 100 kPa, Liquid, Standard Abbe refractometry
[2] = mn = molality of the nth substance listed, in mol/kg; details: 100 kPa, Liquid; for speed of sound: Linear variable-path acoustic interferometer; for mass density: Pycnometric method

CC1NC(=O)C(C)NC1=O (stereo not given) [3,6-dimethyl-2,5-piperazinedione] + O
m1 = 0.05
Details	mass density, [2] [kg/m3]	refractive index, [1]	speed of sound, [2] [m/s]
293.15 K	999.9 ± 0.38	1.3351 ± 0.0005	1499.7 ± 1.8
298.15 K	998.82 ± 0.39	1.3344 ± 0.0005	1509.5 ± 1.8
303.15 K	997.48 ± 0.4	1.3337 ± 0.0005	1521.1 ± 1.8
308.15 K	996.18 ± 0.41	1.3331 ± 0.0005	1527.9 ± 1.8
313.15 K	994.84 ± 0.43	1.3324 ± 0.0005	1535.9 ± 1.8

[Cl][Co][Cl] [cobalt chloride] + O
m1 = 0.1
Details	mass density, [2] [kg/m3]	refractive index, [1]	speed of sound, [2] [m/s]
293.15 K	1014 ± 0.39	1.3373 ± 0.0005	1502.5 ± 1.8
298.15 K	1013 ± 0.4	1.3368 ± 0.0005	1512 ± 1.8
303.15 K	1011.84 ± 0.41	1.3361 ± 0.0005	1524 ± 1.8
308.15 K	1010.16 ± 0.42	1.3356 ± 0.0005	1533.9 ± 1.8
313.15 K	1007.89 ± 0.43	1.335 ± 0.0005	1541.7 ± 1.8
